Experimental data reported in patent US7109220B2, “Amino substituted pyridinyl methanone compounds useful in treating kinase disorders” (Janssen Pharmaceutica N.V., priority 2003, dated 2006).

Experiments:
VEGF-R2 kinase = biological target: T1, VEGF-R2 kinase (Rattus norvegicus, UniProt O08775); test: VEGF-R2 Kinase Screening Assay; assay type: biochemical; settings: soluble rat VEGF-R2 kinase, 10 μM ATP; read-out: VEGF-R IC50
T1 construct: polyhistidine (N)
Experimental: (§1) A kinase reaction mixture was prepared containing 50 mM Tris-HCl pH=8, 10 mM MgCl2, 0.1 mM Na3PO4, 1 mM DTT, 10 μM ATP, 0.025 uM biotinylated peptide substrate and 0.8 μCuries per well^33P-γ-ATP [2000–3000 Ci/mmol]. 70 μL of the kinase reaction mixture was dispensed into the well of a streptavidin coated FlashPlate™ (Cat. #SMP103, NEN, Boston, Mass.). 1 μL of test compound stock in 100% DMSO was added to the wells resulting in a final concentration of 1% DMSO in the mixture with a 100 μL final reaction volume. Soluble rat VEGF-R2 kinase^3 was diluted in 50 mM Tris-HCl pH=8.0, 0.1% BSA at a concentration of 5 ng per microliter and 30 μL (150 ng enzyme per test well) was added to each well to initiate the reaction. The reaction was incubated for one hour at 30° C. At the end of the 1-hour incubation, the reaction was terminated by aspirating the reaction mixture from the plate and washing the wells twice with PBS containing 100 mM EDTA. The PLC1 biotinylated peptide substrate became immobilized on the Flashplate™ and the incoporation of ^33P-γ-ATP was measured by reading the plate on a scintillation counter. Inhibition of the enzymatic activity of the VEGF-R was measured by observing a reduced amount of ^33P-γ-ATP incorporated into the immobilized peptide. ^3VEGF-R2 kinase (Vascular Endothelial Growth Factor Receptor-2): a fusion protein containing a polyhistidine tag at the N-terminus followed by amino acids 786–1343 of the rat VEGF-R2 kinase domain GenBank Accession #U93306); Peptide Substrate (Biotin)KHKKLAEGSAYEEV-Amide
(§2) IC50 values listed as >10 or >100 indicate no observed 50% inhibition at the highest dose tested, nor was an inhibition maximum observed.

CDK1:Cyclin-B = biological target: T2, CDK1:Cyclin-B (Homo sapiens, UniProt P06493); test: CDK1 Screening Assay; assay type: biochemical; settings: 10 μM ATP, histone-H1 peptide substrate, 1 hour at 30° C.
T2 construct: purchased New England Biolabs, Beverly, Mass; (CDK1); BIOMOL, Plymouth Meeting, Pa; (Cyclin-B) #6020 (CDK1); #SE-195 (Cyclin-B); host or cells: insect cells
Experimental: (§3) A kinase reaction mixture was prepared containing 50 mM Tris-HCl pH=8, 10 mM MgCl2, 0.1 mM Na3PO4, 1 mM DTT, 10 μM ATP, 0.025 μM biotinylated histone-H1 peptide substrate and 0.2 μCuries per well^33P-γ-ATP [2000–3000 Ci/mmol]. 70 μL of the kinase reaction mixture was dispensed into the well of a streptavidin coated FlashPlate™ (Cat. #SMP103, NEN, Boston, Mass.). Then 1 μL of test compound stock in 100% DMSO was added to the wells resulting in a final concentration of 1% DMSO in the reaction with a 100 μL final reaction volume. CDK1:Cyclin-B protein^1 was diluted in 50 mM Tris-HCl pH=8.0, 0.1% BSA at a concentration of 1 ng per microliter. 30 μL (30 ng enzyme per test well) was added to each well to initiate the reaction, The reaction was incubated for one hour at 30° C. At the end of the 1-hour incubation, the reaction was terminated by aspirating the reaction mixture from the plate and washing the wells twice with PBS containing 100 mM EDTA. The histone-H1 biotinylated peptide substrate became immobilized on the Flashplate™ and the incorporation of ^33P-γ-ATP was measured by reading the plate on a scintillation counter. Inhibition of the enzymatic activity of CDK1 was measured by observing a reduced amount of ^33P-γ-ATP incorporated into the immobilized peptide. ^1CDK1 (cyclin dependent kinase 1) was isolated from insect cells expressing both the human CDK1 catalytic subunit and its positive regulatory subunit Cyclin B (CDK1: New England Biolabs, Beverly, Mass., Cat. #6020; Cyclin-B: BIOMOL, Plymouth Meeting, Pa., Cat. #SE-195); Peptide Substrate (Biotin)KTPKKAKKPKTPKKAKKL-Amide.
as §2

HER2 kinase = biological target: T3, HER2 kinase (Homo sapiens, UniProt P04626); test: HER-2 Kinase Screening Assay; assay type: biochemical; settings: HER2 cytoplasmic domain construct, 10 μM ATP
T3 construct: polyhistidine (N); 24 additional non-native amino acids (between the His tag and HER2) (N)
Experimental: as §1
Using the procedure and materials of Example 3, replacing VEGF-R2 kinase with HER2^4, the IC50 data for HER2 kinase is shown in Table 4. ^4HER2 (Human Epidermal Growth Factor Receptor-2): a construct containing a polyhistidine tag at the N-terminus followed by 24 additional non-native amino acids beginning at amino acid 676 (Accession number M11730) followed by the remainder of the HER2 cytoplasmic domain; Peptide Substrate (Biotin)KHKKLAEGSAYEEV-Amide.
IC50 values listed as >100 indicate no observed 50% inhibition at the highest dose tested, nor was an inhibition maximum observed.

CDK2:Cyclin-E = biological target: T4, CDK2:Cyclin-E (Homo sapiens, UniProt P24941); test: CDK2 Screening Assay; assay type: biochemical; settings: 10 μM ATP, histone-H1 peptide substrate
T4 construct: purchased Upstate Biotechnology, Lake Placid, N.Y
Experimental: as §3
Using the procedure and materials of Example 1, replacing CDK1:Cyclin-B protein with CDK2:Cyclin-E protein^2, the IC50 data for CDK2 is shown in Table 2. ^2CDK2 (cyclin dependent kinase 2) in complex with cyclin E is commercially available (Upstate Biotechnology, Lake Placid, N.Y.); Peptide Substrate (Biotin)KTPKKAKKPKTPKKAKKL-Amide
IC50 values listed as ˜100 indicate no observed 50% inhibition at the highest dose tested, nor was an inhibition maximum observed.

A375 malignant melanoma = test: Inhibition of Cell Proliferation (14C-thymidine incorporation), A375; assay type: cell-based; settings: Homo sapiens, A-375
Experimental: (§4) The ability of a test compound to inhibit the proliferation of cell growth was determined by measuring incorporation of ^14C-labelled thymidine into newly synthesized DNA within the cells. This method was used on cell lines derived from carcinomas originating from several tissues such as HeLa cervical adenocarcinoma (American Type Culture Collection (ATCC), Virginia, Cat. #CCL-2), HCT-116 colon carcinoma (CCL-247), MDA-MB-231 (Xenogen Corp.), PC-3 prostate adenocarcinoma (ATCC CRL-1435) and A375 malignant melanoma (ATCC CRL-1619).
(§5) Using this method, the effect of a compound on cell growth for cells with many different phenotypes can be determined. Cells were trypsinized and counted and 3000–8000 cells were added to each well of a 96-well CytoStar tissue culture treated scintillating microplate (Amersham #RPNQ0160) in complete medium in a volume of 100 μl. Cells were incubated for 24 hours in complete medium at 37° C. in an atmosphere containing 5% CO2. 1 μL of test compound in 100% DMSO was then added to the wells of the plate. DMSO only was added to control wells. Cells were incubated for 24 more hours in complete medium at 37° C. in an atmosphere containing 5% CO2. […] The degree of methyl ^14C-thymidine incorporation was quantified on a Packard Top Count.

HCT-116 colon carcinoma = test: Inhibition of Cell Proliferation (14C-thymidine incorporation), HCT-116; assay type: cell-based; settings: Homo sapiens
Experimental: as §4, §5

[1] = system: HeLa cervical adenocarcinoma; test: Inhibition of Cell Proliferation (14C-thymidine incorporation), HeLa; assay type: cell-based; settings: Homo sapiens
Experimental: as §4, §5

T3 sequence (P04626 676-1255 limits assumed): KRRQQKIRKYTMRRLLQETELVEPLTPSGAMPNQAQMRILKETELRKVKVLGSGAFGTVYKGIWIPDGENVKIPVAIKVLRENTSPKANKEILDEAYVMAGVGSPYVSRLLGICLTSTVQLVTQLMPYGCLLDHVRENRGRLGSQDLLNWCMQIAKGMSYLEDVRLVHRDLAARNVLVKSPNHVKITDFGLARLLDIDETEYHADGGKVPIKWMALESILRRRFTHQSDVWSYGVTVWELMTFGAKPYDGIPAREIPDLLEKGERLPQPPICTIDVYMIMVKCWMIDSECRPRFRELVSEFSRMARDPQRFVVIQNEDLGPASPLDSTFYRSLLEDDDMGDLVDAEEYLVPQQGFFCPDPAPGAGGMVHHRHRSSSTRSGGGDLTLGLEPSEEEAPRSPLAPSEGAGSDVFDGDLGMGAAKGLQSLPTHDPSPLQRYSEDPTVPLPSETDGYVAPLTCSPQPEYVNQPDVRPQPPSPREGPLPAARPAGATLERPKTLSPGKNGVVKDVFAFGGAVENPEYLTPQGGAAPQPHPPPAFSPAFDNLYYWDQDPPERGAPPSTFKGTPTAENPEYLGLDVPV
T2 sequence (P06493 whole entry): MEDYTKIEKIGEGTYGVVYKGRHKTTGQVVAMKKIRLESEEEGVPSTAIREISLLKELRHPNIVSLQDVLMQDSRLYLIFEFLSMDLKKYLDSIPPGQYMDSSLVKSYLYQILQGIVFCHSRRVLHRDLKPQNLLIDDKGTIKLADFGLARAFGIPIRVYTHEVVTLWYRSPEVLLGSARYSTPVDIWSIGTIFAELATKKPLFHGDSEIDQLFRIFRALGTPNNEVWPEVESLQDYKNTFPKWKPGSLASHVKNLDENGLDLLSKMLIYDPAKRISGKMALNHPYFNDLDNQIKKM
T2 sequence (P14635 whole entry partner): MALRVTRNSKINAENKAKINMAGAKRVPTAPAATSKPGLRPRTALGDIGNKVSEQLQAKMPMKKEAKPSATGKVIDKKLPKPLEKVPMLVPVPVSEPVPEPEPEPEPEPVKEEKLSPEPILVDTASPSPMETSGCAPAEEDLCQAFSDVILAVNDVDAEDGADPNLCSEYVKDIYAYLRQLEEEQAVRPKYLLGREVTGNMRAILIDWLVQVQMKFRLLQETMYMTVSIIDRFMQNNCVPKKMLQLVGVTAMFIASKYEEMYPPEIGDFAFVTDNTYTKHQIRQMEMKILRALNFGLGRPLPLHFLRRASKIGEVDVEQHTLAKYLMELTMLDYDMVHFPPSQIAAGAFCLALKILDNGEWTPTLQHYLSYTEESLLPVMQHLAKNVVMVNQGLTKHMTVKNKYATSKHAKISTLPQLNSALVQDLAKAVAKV
T1 sequence (O08775 786-1343): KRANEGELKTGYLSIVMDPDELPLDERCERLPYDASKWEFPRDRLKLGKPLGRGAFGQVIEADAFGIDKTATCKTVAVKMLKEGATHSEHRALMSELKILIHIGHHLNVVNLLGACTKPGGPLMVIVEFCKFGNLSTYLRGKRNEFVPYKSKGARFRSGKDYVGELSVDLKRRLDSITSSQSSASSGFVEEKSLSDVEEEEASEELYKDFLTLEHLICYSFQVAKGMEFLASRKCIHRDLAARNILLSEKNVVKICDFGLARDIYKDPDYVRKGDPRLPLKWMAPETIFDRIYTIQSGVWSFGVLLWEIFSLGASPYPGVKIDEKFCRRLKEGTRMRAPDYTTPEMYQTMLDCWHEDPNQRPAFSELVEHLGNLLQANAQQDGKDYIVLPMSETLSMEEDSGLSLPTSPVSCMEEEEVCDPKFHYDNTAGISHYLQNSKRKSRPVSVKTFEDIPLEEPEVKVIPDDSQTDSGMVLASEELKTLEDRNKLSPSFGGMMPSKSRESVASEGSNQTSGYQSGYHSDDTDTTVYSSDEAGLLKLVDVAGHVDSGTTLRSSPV

melting point	Compound	IC50 (VEGF-R2 kinase)	IC50 (CDK1:Cyclin-B)	IC50 (HER2 kinase)	IC50 (CDK2:Cyclin-E)	IC50 (A375 malignant melanoma)	IC50 (HCT-116 colon carcinoma)	IC50 [1]
220 to 225 °C	Nc1nc(Nc2ccc([N+](=O)[O-])cc2)ccc1C(=O)c1c(F)cccc1F [Cpd 9, [2-amino-6-[(4-nitrophenyl)amino]-3-pyridinyl](2,6-difluorophenyl)methanone]	> 10 µM	–	–	–	–	–	–
179 to 181 °C	Nc1ccc(C(=O)c2c(F)cccc2F)c(N)n1 [Cpd 1, (2,6-diamino-3-pyridinyl)(2,6-difluorophenyl)methanone]	> 10 µM	–	–	–	–	–	–
–	CCCCOc1cc(NC(=O)Nc2ccccc2)nc(N)c1C(=O)c1c(F)cccc1F [Cpd 32, 1-[6-Amino-4-butoxy-5-(2,6-difluoro-benzoyl)-pyridin-2-yl]-3-phenyl-urea]	> 100 µM	> 100 µM	> 100 µM	≥ 100 µM	–	–	–
208 to 210 °C (dec.)	N#Cc1ccc(Nc2ccc(C(=O)c3c(F)cccc3F)c(N)n2)cc1 [Cpd 8, 4-[[6-amino-5-(2,6-difluorobenzoyl)-2-pyridinyl]amino]benzonitrile]	> 10 µM	–	–	–	–	–	–
–	CCCCOc1cc(Nc2ccc(S(N)(=O)=O)cc2)nc(N)c1C(=O)c1c(F)cccc1F [Cpd 36, 4-[6-Amino-4-butoxy-5-(2,6-difluoro-benzoyl)-pyridin-2-ylamino]-benzenesulfonamide]	> 100 µM	0.28 µM	1 µM	0.07 µM	2.96 µM	6.78 µM	10.7 µM
–	CCCCOc1cc(NC(=S)Nc2ccccc2)nc(N)c1C(=O)c1c(F)cccc1F [Cpd 33, 1-[6-Amino-4-butoxy-5-(2,6-difluoro-benzoyl)-pyridin-2-yl]-3-phenyl-thiourea]	> 100 µM	> 100 µM	> 100 µM	≥ 100 µM	–	–	–
–	CCCCOc1cc(NC(=O)c2ccccc2)nc(N)c1C(=O)c1c(F)cccc1F [Cpd 34, N-[6-Amino-4-butoxy-5-(2,6-difluoro-benzoyl)-pyridin-2-yl]-benzamide]	> 100 µM	> 100 µM	> 100 µM	≥ 100 µM	–	–	–
–	CCCCOc1cc(N)nc(N)c1C(=O)c1c(F)cccc1F [Cpd 31, (2,6-Diamino-4-butoxy-pyridin-3-yl)-(2,6-difluoro-phenyl)-methanone]	40.2 µM	1.16 µM	1.14 µM	1.32 µM	–	–	–
